The source of these data is the Kinase Knowledgebase extract (Sharma et al. 2016).

The target in the assay is ROCK2 (human) (UniProt O75116). As to the kind of experiment: Inhibition of ROCK2 Kinase Activity.

Several values for one entry are separate records, joined by “and”; a condition that tells them apart may be missing. Equal values may be shown once. Bounds are passed on as bounds.

The term IC50 denotes the midpoint of a concentration-inhibition curve. A high value points to weaker potency.

Chain of ROCK2 (human) (O75116 whole entry, looked up): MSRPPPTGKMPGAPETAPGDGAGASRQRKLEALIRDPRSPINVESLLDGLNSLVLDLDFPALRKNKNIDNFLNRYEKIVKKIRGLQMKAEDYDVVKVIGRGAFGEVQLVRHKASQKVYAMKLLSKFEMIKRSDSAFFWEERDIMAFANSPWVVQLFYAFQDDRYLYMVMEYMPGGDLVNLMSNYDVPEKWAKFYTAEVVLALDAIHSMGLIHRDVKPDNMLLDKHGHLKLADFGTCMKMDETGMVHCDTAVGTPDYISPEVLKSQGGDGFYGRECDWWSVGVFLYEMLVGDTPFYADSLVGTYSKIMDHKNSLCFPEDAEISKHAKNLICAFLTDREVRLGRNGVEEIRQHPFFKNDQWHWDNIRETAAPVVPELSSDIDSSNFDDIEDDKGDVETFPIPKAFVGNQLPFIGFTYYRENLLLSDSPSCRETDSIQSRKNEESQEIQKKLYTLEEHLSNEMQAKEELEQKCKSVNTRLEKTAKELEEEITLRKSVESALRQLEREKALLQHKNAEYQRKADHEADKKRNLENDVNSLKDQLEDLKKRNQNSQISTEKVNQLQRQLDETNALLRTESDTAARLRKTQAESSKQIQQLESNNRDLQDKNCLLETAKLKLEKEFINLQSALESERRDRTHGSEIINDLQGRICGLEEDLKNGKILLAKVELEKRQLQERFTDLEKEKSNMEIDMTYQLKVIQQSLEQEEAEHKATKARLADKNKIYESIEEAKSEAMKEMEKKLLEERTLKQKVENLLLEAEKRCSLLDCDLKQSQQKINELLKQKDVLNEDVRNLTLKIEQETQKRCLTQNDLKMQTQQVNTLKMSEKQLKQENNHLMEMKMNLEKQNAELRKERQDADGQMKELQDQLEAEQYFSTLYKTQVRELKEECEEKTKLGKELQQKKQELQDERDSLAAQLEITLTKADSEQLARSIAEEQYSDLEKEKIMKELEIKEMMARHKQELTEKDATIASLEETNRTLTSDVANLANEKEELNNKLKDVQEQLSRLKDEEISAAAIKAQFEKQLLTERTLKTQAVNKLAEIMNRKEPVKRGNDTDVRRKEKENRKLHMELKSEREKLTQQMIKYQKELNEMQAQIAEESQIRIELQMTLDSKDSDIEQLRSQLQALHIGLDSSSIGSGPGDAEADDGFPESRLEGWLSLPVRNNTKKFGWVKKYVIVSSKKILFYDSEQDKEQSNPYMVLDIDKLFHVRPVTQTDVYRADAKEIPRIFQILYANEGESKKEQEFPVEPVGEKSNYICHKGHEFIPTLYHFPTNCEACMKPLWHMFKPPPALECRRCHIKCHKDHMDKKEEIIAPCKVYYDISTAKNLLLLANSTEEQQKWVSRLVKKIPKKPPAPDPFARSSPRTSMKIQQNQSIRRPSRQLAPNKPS

Turning to `CCC(NCC1CC1)[C@]1(CC)CC[C@H](Oc2cc3cc[nH]c(=O)c3cc2Cl)CC1` (stereo not given in full), the IC50 lay within 100 to 1000 nM.

As to `CC(C)C1(C(N)c2cncs2)CCC(Oc2cc3cc[nH]c(=O)c3cc2Cl)CC1` (stereo not given), the IC50 fell in the range of 10 to 100 nM.

For `CCC(N)[C@]1(CC)CC[C@H](Oc2cc3cc[nH]c(=O)c3cc2C)CC1` (stereo not given in full), the IC50 is 100 to 1000 nM.

Take `CCC(N)[C@]1(C2CCOCC2)CC[C@@H](Oc2cc3cc[nH]c(=O)c3cc2Cl)CC1` (stereo not given in full): the IC50 is 100 to 1000 nM. The value for `CCCC(N)C1(CC2CC2)CCC(Oc2cc3cc[nH]c(=O)c3cc2Cl)CC1` (stereo not given) was 10 to 100 nM and ≤ 10 nM; that for `CC[C@]1(C(N)CF)CC[C@H](Oc2cc3cc[nH]c(=O)c3cc2Cl)CC1` (stereo not given in full) was 10 to 100 nM.

Take `CCC(N)[C@]1(C2CCSCC2)CC[C@H](Oc2cc3cc[nH]c(=O)c3cc2Cl)CC1` (stereo not given in full): the IC50 is at most 10 nM. The value for `CC(C)C1(C(N)c2nccs2)CCC(Oc2cc3cc[nH]c(=O)c3cc2Cl)CC1` (stereo not given) was 100 to 1000 nM. The result for `CCOC[C@]1(C(N)CC)CC[C@@H](Oc2cc3cc[nH]c(=O)c3cc2Cl)CC1` (stereo not given in full) reads at most 10 nM; that for `NC(C1CC1)C1(CC2CC2)CCC(Oc2cc3cc[nH]c(=O)c3cc2Cl)CC1` (stereo not given), 10 to 100 nM and ≤ 10 nM.

In the case of `CCCC[C@]1(C(N)CC)CC[C@@H](Oc2cc3c(Cc4ccccc4)c[nH]c(=O)c3cc2Cl)CC1` (stereo not given in full), the IC50 is 100 to 1000 nM.

Regarding `CCC[C@]1(C(C)N)CC[C@@H](Oc2cc3cc[nH]c(=O)c3cc2Cl)CC1` (stereo not given in full), the IC50 was at most 10 nM. The result for `CC[C@H](N)[C@]1(C)CC[C@H](Oc2cc3cc[nH]c(=O)c3cc2Cl)CC1` reads at most 10 nM; that for `CCCC1(C(N)C2CC2)CCC(Oc2cc3cc[nH]c(=O)c3cc2Cl)CC1` (stereo not given), ≤ 10 nM and 10 to 100 nM; that for `CC[C@@H](N)[C@]1(CC)CC[C@H](Oc2cc3cc[nH]c(=O)c3cc2Cl)CC1`, at most 10 nM. The result for `CC[C@]1(C(C)N)CC[C@@H](Oc2cc3cc[nH]c(=O)c3cc2F)CC1` (stereo not given in full) reads 10 to 100 nM. The result for `NC(C1CC1)[C@]1(CC2CCOCC2)CC[C@H](Oc2cc3cc[nH]c(=O)c3cc2Cl)CC1` (stereo not given in full) reads at most 10 nM; that for `CCC(N)C1(C(F)(F)F)CCC(Oc2cc3cc[nH]c(=O)c3cc2Cl)CC1` (stereo not given), 100 to 1000 nM and ≤ 10 nM. Take `CCC(N)[C@]1(CC2CCOCC2)CC[C@H](Oc2cc3cc[nH]c(=O)c3cc2Cl)CC1` (stereo not given in full): the IC50 was 10 to 100 nM.

Molecule `CCC(N)C1(C2CCCC2)CCC(Oc2cc3cc[nH]c(=O)c3cc2Cl)CC1` (stereo not given) displayed an IC50 of 10 to 100 nM.

`CCC(N)[C@]1(CC)CC[C@H](Oc2cc3ccncc3cc2C)CC1` (stereo not given in full) registered an IC50 of 100 to 1000 nM. The result for `CCC(N)[C@]1(CC)CC[C@H](Oc2cc3cc[nH]c(=O)c3cc2F)CC1` (stereo not given in full) reads 10 to 100 nM; that for `CCC(N)[C@]1(OC)CC[C@@H](Oc2cc3cc[nH]c(=O)c3cc2Cl)CC1` (stereo not given in full), 10 to 100 nM; that for `CCC(N)C1(C2CCC2)CCC(Oc2cc3cc[nH]c(=O)c3cc2Cl)CC1` (stereo not given), 10 to 100 nM and 100 to 1000 nM. The result for `CC[C@]1(C(C)N)CC[C@@H](Oc2c(F)cc3cnccc3c2C)CC1` (stereo not given in full) reads 100 to 1000 nM; that for `CCC(N)C1(C(C)C)CCC(Oc2cc3cc[nH]c(=O)c3cc2Cl)CC1` (stereo not given), ≤ 10 nM and 10 to 100 nM; that for `CC(N)C1(CC2CC2)CCC(Oc2cc3cc[nH]c(=O)c3cc2Cl)CC1` (stereo not given), 10 to 100 nM and ≤ 10 nM. As to `CCC1(C(C)N)CCC(Oc2cc3cc[nH]c(=O)c3cc2Cl)CC1` (stereo not given), the IC50 was 10 to 100 nM and ≤ 10 nM. The result for `CCC(N)[C@]1(CC)CC[C@H](Oc2cc3cc[nH]c(=O)c3cc2Cl)CC1` (stereo not given in full) reads at most 10 nM; that for `CCC(N)C1(Cc2ccccc2)CCC(Oc2cc3cc[nH]c(=O)c3cc2Cl)CC1` (stereo not given), 10 to 100 nM; that for `NC(C1CC1)[C@]1(C2CC2)CC[C@H](Oc2cc3cc[nH]c(=O)c3cc2Cl)CC1` (stereo not given in full), at most 10 nM. `CCC(N)[C@]1(CC)CC[C@H](Oc2c(C)cc3cnccc3c2C)CC1` (stereo not given in full) yielded an IC50 of 100 to 1000 nM. The value for `CC[C@H](N)[C@]1(CC)CC[C@H](Oc2cc3cc[nH]c(=O)c3cc2Cl)CC1` was at most 10 nM; that for `C[C@]1(C(N)c2ccccc2)CC[C@@H](Oc2cc3cc[nH]c(=O)c3cc2Cl)CC1` (stereo not given in full) was 10 to 100 nM.

In turn, `CC(N)[C@]1(C2CC2)CC[C@H](Oc2cc3cc[nH]c(=O)c3cc2Cl)CC1` (stereo not given in full) returned a 50% inhibitory concentration (IC50) of 10 to 100 nM. In the case of `CC[C@]1(C(N)CF)CC[C@@H](Oc2cc3cc[nH]c(=O)c3cc2Cl)CC1` (stereo not given in full), the IC50 was at most 10 nM. The result for `NC(c1ccccc1)[C@]1(CC2CC2)CC[C@H](Oc2cc3cc[nH]c(=O)c3cc2Cl)CC1` (stereo not given in full) reads 100 to 1000 nM; that for `CCC(N)[C@]1(C2CCOCC2)CC[C@H](Oc2cc3cc[nH]c(=O)c3cc2Cl)CC1` (stereo not given in full), at most 10 nM; that for `NC(C(F)(F)F)C1(CC2CC2)CCC(Oc2cc3cc[nH]c(=O)c3cc2Cl)CC1` (stereo not given), 100 to 1000 nM. In turn, `CCCC(N)[C@]1(C)CC[C@H](Oc2cc3cc[nH]c(=O)c3cc2Cl)CC1` (stereo not given in full) displayed an IC50 of at most 10 nM.
